How the values were obtained:
[1] = target: T1, Pri1 (full-length, 1 to 420) (Homo sapiens, UniProt P49642); experiment: fluorescence polarization competition against 6FAM-ATP; format: binding; conditions: read-out: K1/2
T1 construct: gene PRIM1; full-length catalytic subunit alone (1-420), His6 tag cleaved by TEV protease, E. coli Rosetta2 (DE3), pRSFDuet-1
T1 sequence (P49642 1-420): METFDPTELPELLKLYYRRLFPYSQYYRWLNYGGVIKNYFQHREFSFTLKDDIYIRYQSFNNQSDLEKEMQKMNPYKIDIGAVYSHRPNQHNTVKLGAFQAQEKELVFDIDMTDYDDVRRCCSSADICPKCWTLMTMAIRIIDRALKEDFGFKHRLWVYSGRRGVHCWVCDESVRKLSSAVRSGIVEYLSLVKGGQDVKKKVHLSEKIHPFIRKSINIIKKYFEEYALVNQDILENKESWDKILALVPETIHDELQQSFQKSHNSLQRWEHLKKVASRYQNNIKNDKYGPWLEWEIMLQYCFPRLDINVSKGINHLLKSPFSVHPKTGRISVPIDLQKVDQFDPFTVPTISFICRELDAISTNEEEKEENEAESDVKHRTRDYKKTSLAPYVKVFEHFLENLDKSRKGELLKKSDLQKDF

[2] = target: T1, Pri1 (full-length, 1 to 420); experiment: fluorescence anisotropy direct titration; format: binding

| Compound | IC50 [1] | Kd [2] |
| --- | --- | --- |
| Nc1nc(F)nc2c1ncn2[C@@H]1O[C@H](COP(=O)(O)OP(=O)(O)OP(=O)(O)O)[C@@H](O)[C@H]1O [2F-ATP] | 7.2 µM |  |
| Nc1nc(F)nc2c1ncn2[C@@H]1O[C@H](COP(=O)(O)OP(=O)(O)OP(=O)(O)O)[C@@H](O)[C@@H]1O [fludarabine-TP] | 1.1 µM |  |
| O=C(NCCCCCCNc1ncnc2c1ncn2[C@@H]1O[C@H](COP(=O)(O)OP(=O)(O)OP(=O)(O)O)[C@@H](O)[C@H]1O)c1ccc2c(c1)C1(OC2=O)c2ccc(O)cc2Oc2cc(O)ccc21 [6FAM-ATP] |  | 0.41 µM |
| Nc1ncnc2c1ncn2[C@@H]1O[C@H](COP(=O)(O)OP(=O)(O)OP(=O)(O)O)[C@@H](O)[C@H]1O [ATP] | 7.5 µM |  |

Results, then the compound that gave them:

| IC50 [1] | Kd [2] | Compound |
| --- | --- | --- |
| 1.5 µM |  | Nc1ncnc2c1ncn2[C@@H]1O[C@H](COP(=O)(O)OP(=O)(O)OP(=O)(O)O)[C@@H](O)[C@@H]1O [vidarabine-TP] |
| 3.3 µM |  | Nc1ncnc2c1ncn2[C@H]1C[C@H](O)[C@@H](COP(=O)(O)OP(=O)(O)OP(=O)(O)O)O1 [dATP] |

Reference: article PMC6757278, “Structural Basis for Inhibition of Human Primase by Arabinofuranosyl Nucleoside Analogues Fludarabine and Vidarabine” (ACS Chemical Biology, 2019)
